In US20250034136A1 (Nimbus Wadjet, Inc., priority 2023, published 2025):
Read-outs that look alike come from different tables or passages of the source.

What was measured:
[1] = system: p21 induction in HCT116 cells; assay: p21 induction in HCT116 cells; type: cell-based; settings: HCT116 cells, 24 h compound incubation, read-out: P21_EC50
How it was run: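 EC50 from non-linear curve fit of p21 immunofluorescence (800 nm), with GAPDH (700 nm) read alongside. DMSO and a reference WRN inhibitor served as low and high controls. Cells (2,000/well) got 11 compound concentrations in duplicate for 24 h at 37 °C.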

[2] = molecular target: WRN (BV08), human Werner helicase (Uniprot Q14191, amino acids 517-1235 with L1074F point mutation) (Homo sapiens (Human), UniProt Q14191, L1074F); assay: WRN (BV08) ADP-Glo assay; type: biochemical; settings: class symbols A-E, read-out: ADP-Glo_hWRN_IC50
WRN (BV08), human Werner helicase (Uniprot Q14191, amino acids 517-1235 with L1074F point mutation), sequence (Q14191 other isoform, or with tags, fused parts or gaps L1074F (already in the parent)): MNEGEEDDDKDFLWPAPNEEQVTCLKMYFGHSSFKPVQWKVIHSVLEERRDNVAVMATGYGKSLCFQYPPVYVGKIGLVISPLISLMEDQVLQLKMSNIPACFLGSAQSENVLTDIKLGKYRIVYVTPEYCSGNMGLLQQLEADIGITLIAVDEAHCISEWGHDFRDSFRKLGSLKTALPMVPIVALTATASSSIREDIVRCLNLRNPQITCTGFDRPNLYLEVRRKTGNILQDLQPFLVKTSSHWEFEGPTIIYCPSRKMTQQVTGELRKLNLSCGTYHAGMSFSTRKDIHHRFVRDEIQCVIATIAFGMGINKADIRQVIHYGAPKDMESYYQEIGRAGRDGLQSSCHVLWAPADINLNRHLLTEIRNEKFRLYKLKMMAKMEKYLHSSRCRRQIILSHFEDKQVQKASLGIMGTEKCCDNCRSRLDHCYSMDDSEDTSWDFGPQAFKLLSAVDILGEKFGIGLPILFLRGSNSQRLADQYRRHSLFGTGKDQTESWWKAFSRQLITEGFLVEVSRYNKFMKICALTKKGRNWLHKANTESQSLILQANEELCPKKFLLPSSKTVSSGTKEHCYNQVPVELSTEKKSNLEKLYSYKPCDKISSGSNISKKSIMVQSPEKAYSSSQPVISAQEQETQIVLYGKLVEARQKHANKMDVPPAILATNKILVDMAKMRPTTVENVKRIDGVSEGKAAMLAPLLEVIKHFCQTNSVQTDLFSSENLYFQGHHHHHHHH

Row | EC50 ([1]; Homo sapiens, HCT-116, 24 h) [nM] | IC50 [2] [nM] | EC50 [1] [nM] | SMILES
1 | 2000 to 5000 | 5 to 50 |  | CC#Cc1cnc2c(n1)c(=O)c(N1CCN(C(=O)c3ncnc(C)c3O)CC1)c(CC)n2CC(=O)Nc1ccc(C(F)(F)F)cc1Cl [I-11, N-(2-chloro-4-(trifluoromethyl)phenyl)-2-(6-ethyl-7-(4-(5-hydroxy-6-methylpyrimidine-4-carbonyl)piperazin-1-yl)-8-oxo-2-(prop-1-yn-1-yl)pyrido[2,3-b]pyrazin-5(8H)-yl)acetamide]
2 | < 500 | 5 to 50 |  | CCc1c(N2CCN(C(=O)c3ncnc(C)c3O)CC2(C)C)c(=O)c2nc(N(C)C)cnc2n1CC(=O)Nc1ccc(C(F)(F)F)cc1Cl [I-249, N-[2-chloro-4-(trifluoromethyl)phenyl]-2-[2-(dimethylamino)-6-ethyl-7-[4-(5-hydroxy-6-methylpyrimidine-4-carbonyl)-2,2-dimethylpiperazin-1-yl]-8-oxo-5H,8H-pyrido[2,3-b]pyrazin-5-yl]acetamide]
3 | < 500 | ≤ 5 |  | CCc1c(N2CCN(C(=O)c3ncnc(C)c3O)[C@H]3CC[C@@H]32)c(=O)c2nc(N3CC[C@H]4C[C@H]43)cnc2n1CC(=O)Nc1ccc(C(F)(F)F)cc1F (relative stereo) [I-122, 2-(2-((1R*,5S*)-2-azabicyclo[3.1.0]hexan-2-yl)-6-ethyl-7-((1S,6S)-5-(5-hydroxy-6-methylpyrimidine-4-carbonyl)-2,5-diazabicyclo[4.2.0]octan-2-yl)-8-oxopyrido[2,3-b]pyrazin-5(8H)-yl)-N-(2-fluoro-4-(trifluoromethyl)phenyl)acetamide]
4 | 500 to 2000 | 5 to 50 |  | CCc1c(N2CCN(C(=O)c3ncnc(C)c3O)CC2)c(=O)c2nc(N3CC4CC4C3)cnc2n1CC(=O)Nc1ccc(C(F)(F)F)cc1Cl (stereo not drawn) [I-156, 2-(2-{3-azabicyclo[3.1.0]hexan-3-yl}-6-ethyl-7-[4-(5-hydroxy-6-methylpyrimidine-4-carbonyl)piperazin-1-yl]-8-oxo-5H,8H-pyrido[2,3-b]pyrazin-5-yl)-N-[2-chloro-4-(trifluoromethyl)phenyl]acetamide]
5 | < 500 | 5 to 50 |  | CCc1c(N2CCN(C(=O)c3c(OC(F)F)ncc(C)c3O)[C@H]3CC[C@@H]32)c(=O)c2nc(N(C)C)cnc2n1CC(=O)Nc1ccc(C(F)(F)F)cc1Cl [I-281, N-[2-chloro-4-(trifluoromethyl)phenyl]-2-{7-[(1S,6S)-5-[2-(difluoromethoxy)-4-hydroxy-5-methylpyridine-3-carbonyl]-2,5-diazabicyclo[4.2.0]octan-2-yl]-2-(dimethylamino)-6-ethyl-8-oxo-5H,8H-pyrido[2,3-b]pyrazin-5-yl}acetamide]
6 | 500 to 2000 | 5 to 50 |  | CCc1c(N2CCN(C(=O)c3ncnc(C)c3O)[C@H]3CC[C@@H]32)c(=O)c2nc(N3CC[C@@H](O)C3)cnc2n1CC(=O)Nc1ccc(C(F)(F)F)cc1Cl [I-270, N-[2-chloro-4-(trifluoromethyl)phenyl]-2-{6-ethyl-7-[(1S,6S)-5-(5-hydroxy-6-methylpyrimidine-4-carbonyl)-2,5-diazabicyclo[4.2.0]octan-2-yl]-2-[(3R)-3-hydroxypyrrolidin-1-yl]-8-oxo-5H,8H-pyrido[2,3-b]pyrazin-5-yl}acetamide]
7 | > 5000 | 5 to 50 |  | CCc1c(N2CCN(C(=O)c3ncnc(C)c3O)CC2)c(=O)c2nc(N3CCCC3=O)cnc2n1CC(=O)Nc1ccc(C(F)(F)F)cc1Cl [I-27, N-(2-chloro-4-(trifluoromethyl)phenyl)-2-(6-ethyl-7-(4-(5-hydroxy-6-methylpyrimidine-4-carbonyl)piperazin-1-yl)-8-oxo-2-(2-oxopyrrolidin-1-yl)pyrido[2,3-b]pyrazin-5(8H)-yl)acetamide]
8 | > 5000 | 100 to 500 |  | CCc1c(N2C[C@@H]3CC[C@H]2CN3C(=O)c2ncnc(C)c2O)c(=O)c2nc(N(C)C)cnc2n1CC(=O)Nc1ccc(C(F)(F)F)cc1Cl (single isomer, unassigned) [I-247, N-(2-chloro-4-(trifluoromethyl)phenyl)-2-(2-(dimethylamino)-6-ethyl-7-(5-(5-hydroxy-6-methylpyrimidine-4-carbonyl)-2,5-diazabicyclo[2.2.2]octan-2-yl)-8-oxopyrido[2,3-b]pyrazin-5(8H)-yl)acetamide]
9 | > 5000 | 5 to 50 |  | CCc1c(N2CCN(C(=O)c3ncnc(C)c3O)CC2)c(=O)c2nc(NC)cnc2n1CC(=O)Nc1ccc(C(F)(F)F)cc1Cl [I-20, N-(2-chloro-4-(trifluoromethyl)phenyl)-2-(6-ethyl-7-(4-(5-hydroxy-6-methylpyrimidine-4-carbonyl)piperazin-1-yl)-2-(methylamino)-8-oxopyrido[2,3-b]pyrazin-5(8H)-yl)acetamide]
10 | 500 to 2000 | 5 to 50 |  | CCc1c(N2CCN(C(=O)c3ncnc(C)c3O)CC2)c(=O)c2nc(N(C)CC)cnc2n1CC(=O)Nc1ccc(C(F)(F)F)cc1Cl [I-74, N-(2-chloro-4-(trifluoromethyl)phenyl)-2-(6-ethyl-2-(ethyl(methyl)amino)-7-(4-(5-hydroxy-6-methylpyrimidine-4-carbonyl)piperazin-1-yl)-8-oxopyrido[2,3-b]pyrazin-5(8H)-yl)acetamide]
11 | < 500 | 5 to 50 |  | CCc1c(N2CCN(C(=O)c3c(OC)ncc(C)c3O)[C@H]3CC[C@@H]32)c(=O)c2nc(N(C)C)cnc2n1CC(=O)Nc1ccc(C(F)(F)F)cc1Cl [I-261, N-[2-chloro-4-(trifluoromethyl)phenyl]-2-[2-(dimethylamino)-6-ethyl-7-[(1S,6S)-5-(4-hydroxy-2-methoxy-5-methylpyridine-3-carbonyl)-2,5-diazabicyclo[4.2.0]octan-2-yl]-8-oxo-5H,8H-pyrido[2,3-b]pyrazin-5-yl]acetamide]
12 | 2000 to 5000 | 5 to 50 |  | CCc1c(N2CCN(C(=O)c3ncnc(C)c3O)CC2)c(=O)c2nc(C(C)(C)F)cnc2n1CC(=O)Nc1ccc(C(F)(F)F)cc1Cl [I-174, N-[2-chloro-4-(trifluoromethyl)phenyl]-2-[6-ethyl-2-(2-fluoropropan-2-yl)-7-[4-(5-hydroxy-6-methylpyrimidine-4-carbonyl)piperazin-1-yl]-8-oxo-5H,8H-pyrido[2,3-b]pyrazin-5-yl]acetamide]
13 | < 500 | ≤ 5 |  | CCc1c(N2CCN(C(=O)c3ncnc(C)c3O)CC2)c(=O)c2nc(C=C(C)C)cnc2n1CC(=O)Nc1ccc(C(F)(F)F)cc1Cl [I-37, N-(2-chloro-4-(trifluoromethyl)phenyl)-2-(6-ethyl-7-(4-(5-hydroxy-6-methylpyrimidine-4-carbonyl)piperazin-1-yl)-2-(2-methylprop-1-en-1-yl)-8-oxopyrido[2,3-b]pyrazin-5(8H)-yl)acetamide]
14 | < 500 | ≤ 5 |  | CCc1c(N2CCN(C(=O)c3ncnc(C)c3O)[C@H]3CC[C@@H]32)c(=O)c2nc(C3CC3)cnc2n1CC(=O)Nc1ccc(C(F)(F)F)cc1Cl [I-100, N-(2-chloro-4-(trifluoromethyl)phenyl)-2-(2-cyclopropyl-6-ethyl-7-((1S,6S)-5-(5-hydroxy-6-methylpyrimidine-4-carbonyl)-2,5-diazabicyclo[4.2.0]octan-2-yl)-8-oxopyrido[2,3-b]pyrazin-5(8H)-yl)acetamide]
15 |  | > 500 | > 5000 | CCc1c(N2C[C@H]3C[C@@H]2CN3C(=O)c2ncnc(C)c2O)c(=O)c2nc(N(C)C)cnc2n1CC(=O)Nc1ccc(C(F)(F)F)cc1Cl (single isomer, unassigned) [I-257]
